Experimental findings from BindingDB's records for doi:10.1016/j.bioorg.2015.07.005 (Birla Institute of Technology, 2015) are described below.

Structures are written as SMILES. pIC50: −log10 of the molar value. Bounds are passed on as bounds.

For the assay, the target named is Genome polyprotein (Dengue virus type 2 (strain Thailand/NGS-C/1944), UniProt P14340). Description: DENV2 Protease Assay. To be noted: pH 8.5. On the procedure: To measure the inhibitory activities of the compounds, the DENV2 NS2B-NS3 protease activities were measured in the presence of the compounds using Bz-Nle-Lys-Arg-Arg-AMC as a substrate. The enzyme concentration in the assay was 125 nM, and the substrate concentration was 20 µM in 10 mM Tris-HCl pH 8.5, 20% glycerol, and 1 mM CHAPS. The inhibitor concentrations were 100 µM for the first round and between 3.125 and 400 µM for the compounds 16 and 19 in the second round. Before adding the substrate, the enzyme and the inhibitors were incubated at 37 °C for 15 min. All reactions were performed in 96-well plates with a final volume of 50 µL per each wells using the FLx800 fluorescence microplate reader (excitation = 380 nm; emission = 460 nm).
Sequence of Genome polyprotein (P14340 1346-1475 limits assumed): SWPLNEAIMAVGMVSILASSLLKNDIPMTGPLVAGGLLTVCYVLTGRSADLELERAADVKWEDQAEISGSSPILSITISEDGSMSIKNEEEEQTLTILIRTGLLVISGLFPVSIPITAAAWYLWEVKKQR
Sequence of Genome polyprotein (P14340 1476-2093 limits assumed): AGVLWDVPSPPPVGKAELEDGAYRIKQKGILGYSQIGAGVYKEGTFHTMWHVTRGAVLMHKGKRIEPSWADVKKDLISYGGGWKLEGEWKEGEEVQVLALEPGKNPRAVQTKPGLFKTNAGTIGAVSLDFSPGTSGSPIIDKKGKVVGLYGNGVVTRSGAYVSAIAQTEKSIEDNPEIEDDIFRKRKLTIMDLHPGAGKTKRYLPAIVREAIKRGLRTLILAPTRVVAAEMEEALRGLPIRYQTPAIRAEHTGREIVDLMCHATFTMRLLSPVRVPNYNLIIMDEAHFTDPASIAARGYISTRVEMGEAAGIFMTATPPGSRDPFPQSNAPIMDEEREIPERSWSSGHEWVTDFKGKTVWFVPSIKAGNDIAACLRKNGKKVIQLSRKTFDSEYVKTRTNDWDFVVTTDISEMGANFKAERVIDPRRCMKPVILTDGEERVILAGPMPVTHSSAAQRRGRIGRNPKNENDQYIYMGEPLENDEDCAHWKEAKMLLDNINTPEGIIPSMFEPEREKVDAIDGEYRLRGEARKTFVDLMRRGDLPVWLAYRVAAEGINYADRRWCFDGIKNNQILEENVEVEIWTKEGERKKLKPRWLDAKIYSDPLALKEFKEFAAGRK

`NS(=O)(=O)c1ccc(N2C(=O)c3ccccc3C2=O)cc1` [4-(1,3-Dioxoisoindolin-2-yl)benzenesulphonamide (1)]: the pIC50 (usually −log10 of the IC50, conventionally taken in molar units) was < 4.00.

For the molecule `Cc1ccccc1NS(=O)(=O)c1ccc(N2C(=O)c3ccccc3C2=O)cc1` [4-(1,3-Dioxoisoindolin-2-yl)-N-o-tolylbenzenesulphonamide (13)], the negative logarithm of the IC50 (pIC50) is < 4.00.

For the molecule `O=C1c2ccccc2C(=O)N1c1ccc(S(=O)(=O)Nc2ccc([N+](=O)[O-])cc2)cc1` [4-(1,3-Dioxoisoindolin-2-yl)-N-(4-nitrophenyl)benzenesulphonamide (17)], the negative logarithm of the IC50 (pIC50) is < 4.00.

In the case of `O=C1c2ccccc2C(=O)N1c1ccc(S(=O)(=O)NCCc2ccccc2)cc1` [4-(1,3-Dioxoisoindolin-2-yl)-N-phenethylbenzenesulphonamide (20)], the negative logarithm of the IC50 (pIC50) is < 4.00.

`S=C(Nc1ccc(C(c2c[nH]c3ccccc23)c2c[nH]c3ccccc23)cc1)Nc1cccc(Br)c1`: the pIC50 is < 4.00.

As for `Cc1ccc(NS(=O)(=O)c2ccc(N3C(=O)c4ccccc4C3=O)cc2)cc1` [4-(1,3-Dioxoisoindolin-2-yl)-N-p-tolylbenzenesulphonamide (15)], the pIC50 is < 4.00.

For `O=C1c2ccccc2C(=O)N1c1ccc(S(=O)(=O)Nc2ccccc2)cc1` [4-(1,3-Dioxoisoindolin-2-yl)-N-phenylbenzenesulphonamide (7)], the negative logarithm of the IC50 (pIC50) is < 4.00.

As to `CCc1ccc(NS(=O)(=O)c2ccc(N3C(=O)c4ccccc4C3=O)cc2)cc1` [4-(1,3-Dioxoisoindolin-2-yl)-N-(4-ethylphenyl)benzenesulphonamide (16)], the pIC50 is 4.32.

Turning to `O=C1c2ccccc2C(=O)N1c1ccc(S(=O)(=O)Nc2ccccc2O)cc1` [4-(1,3-Dioxoisoindolin-2-yl)-N-(2-hydroxyphenyl)benzenesulphonamide (8)], the pIC50 is < 4.00.

As to `COc1cccc(NS(=O)(=O)c2ccc(N3C(=O)c4ccccc4C3=O)cc2)c1` [4-(1,3-Dioxoisoindolin-2-yl)-N-(3-methoxyphenyl)benzenesulphonamide (9)], the pIC50 is < 4.00.

Take `COc1ccc(NS(=O)(=O)c2ccc(N3C(=O)c4ccccc4C3=O)cc2)cc1` [4-(1,3-Dioxoisoindolin-2-yl)-N-(4-methoxyphenyl)benzenesulphonamide (10)]: the pIC50 is < 4.00.

As to `CN1CCN(S(=O)(=O)c2ccc(N3C(=O)c4ccccc4C3=O)cc2)CC1` [2-(4-(4-Methylpiperazin-1-ylsulphonyl)phenyl)isoindoline-1,3-dione (6)], the pIC50 was < 4.00.

For `O=C1c2ccccc2C(=O)N1c1ccc(S(=O)(=O)Nc2cccc(Cl)c2)cc1` [N-(3-chlorophenyl)-4-(1,3-dioxoisoindolin-2-yl)benzenesulphonamide (11)], the negative logarithm of the IC50 (pIC50) was < 4.00.

As for `O=C1c2ccccc2C(=O)N1c1ccc(S(=O)(=O)Nc2cccc3ccccc23)cc1` [4-(1,3-Dioxoisoindolin-2-yl)-N-(naphthalen-1-yl)benzenesulphonamide (19)], the pIC50 was 3.91.

Take `O=C1c2ccccc2C(=O)N1c1ccc(S(=O)(=O)Nc2ccc(Cl)cc2)cc1` [N-(4-chlorophenyl)-4-(1,3-dioxoisoindolin-2-yl)benzenesulphonamide (12)]: the negative-log IC50 (pIC50) is < 4.00.

As to `O=C(O)c1ccc(NS(=O)(=O)c2ccc(N3C(=O)c4ccccc4C3=O)cc2)cc1` [4-(4-(1,3-Dioxoisoindolin-2-yl)phenylsulphonamido)benzoic acid (18)], the pIC50 was < 4.00.

On to `O=C1c2ccccc2C(=O)N1c1ccc(S(=O)(=O)N2CCCCC2)cc1` [2-(4-(Piperidin-1-ylsulphonyl)phenyl)isoindoline-1,3-dione (5)], for which the pIC50 was < 4.00.

For `Cc1cccc(NS(=O)(=O)c2ccc(N3C(=O)c4ccccc4C3=O)cc2)c1` [4-(1,3-Dioxoisoindolin-2-yl)-N-m-tolylbenzenesulphonamide (14)], the negative-log IC50 (pIC50) was < 4.00.

For the molecule `CN(C)S(=O)(=O)c1ccc(N2C(=O)c3ccccc3C2=O)cc1` [4-(1,3-Dioxoisoindolin-2-yl)-N,N-dimethyl benzenesulphonamide (2)], the pIC50 is < 4.00.
